According to the NIST ThermoML archive (doi:10.1016/j.fluid.2014.07.021):
± gives the expanded uncertainty stated by the source.

Conditions: Crystal; DTA

SMILES	Normal melting temperature
CCCCCCCCCCCCCCCCCCCCO [1-eicosanol]	64 ± 2 °C
CCCCCCCCCCCCCCO [1-tetradecanol]	38 ± 2 °C
